According to paper PMC5897741, “Thermokinetic profile of NDM-1 and its inhibition by small carboxylic acids” (Bioscience Reports, 2018):

Key:
NDM-1 [1] = molecular target: T1, NDM-1 (Klebsiella pneumoniae, UniProt C7C422); assay: biochemical
Method: Rates were also determined in the presence of inhibitor by pre-incubation with the enzyme for 30 min at RT before starting kinetic experiments. IC50 values were determined using GraphPad Prism5 software (GraphPadSoftware, La Jolla, CA, USA) by plotting percentage of inhibition against inhibitor concentration; average values from three measurements are reported.

[2] = test system: clinical E. coli–NDM-1 strain; assay: MIC determination, broth microdilution (CLSI); type: cell-based, Escherichia coli; conditions: for synergistic effect with imipenem: 200 and 400 μM inhibitor
Method: Single colonies of E. coli–NDM-1 were used to inoculate Mueller–Hinton medium and were grown at 37°C overnight. […] Results were obtained after incubating the microtitre plate at 37°C for a further 18 h and turbidity of bacterial growth was recorded using a plate reader.

[3] = test system: clinical E. coli strain expressing NDM-1 gene (E. coli–NDM-1); conditions: 400 μM compound, imipenem titrated into E. coli–NDM-1 suspension; efficacy order 7 > 1 > 8
CcrA = conditions: cited from earlier work
ImiS = conditions: cited from earlier work
L1 = conditions: cited from earlier work
NDM-1 [4] = molecular target: T1, NDM-1; assay: ITC multi-injection inhibition assay; type: biochemical; design: made in house; host or cells: E. coli; conditions: for Kiu (uncompetitive inhibition constant): ITC inhibition assay, penicillin G, 25°C, 50 mM Tris–HCl, pH 7.0, 100 mM NaCl; for mode of inhibition: pH 7.0
From the text: Competitive (Kic) and uncompetitive (Kiu) inhibition constant values for each inhibitor were obtained by fitting calculated reaction rates (υ) at different inhibitor concentrations to (eqn 5) using nonlinear regression analysis in Origin software (embedded with ITC), with Kic and Kiu set as shared parameters between all datasets, inhibitor concentration [I], [E]tot, [S] as independent variables and υ as dependent variable.

NDM-1 [5] = molecular target: T1, NDM-1; conditions: ITC, pH 7.0, 25°C
From the text: Successive injections of antibiotic into the sample cell were made at 120 s intervals. Following (eqn 3), the change in thermal power (dQ/dt) from each titration was converted into the reaction rate (υ). These rates were used to fit to the Michaelis–Menten equation (eqn 4) to obtain the kinetic parameters KM (Michaelis–Menten constant) and kcat (turnover rates), where [E]tot is the total concentration of active enzyme. (3) υ=dP/dt=1/VΔHapp⋅dQ/dt (4) υ=kcat[E]tot[S]/KM+[S]

NDM-1 [6] = molecular target: T1, NDM-1; assay: ITC single injection assay, enthalpy of β-lactam hydrolysis; type: biochemical; design: made in house; host or cells: E. coli; conditions: for ΔHapp: NDM-1 catalysed hydrolysis, Tris–HCl pH 7.0, 25°C; for ΔHint: Y-axis intercept of ΔHapp vs ΔHion; for ΔHint / n (number of exchanging protons): pH 7.0; for n (number of exchanging protons): slope of ΔHapp vs ΔHion
Method: Real-time changes of heat-flow were recorded continuously until return to baseline. Control experiments were performed by titrating substrate to buffer and using those data in corrections for heat of dilution before values of ΔHapp were determined using the embedded Origin software, by dividing integrated heat by the molar quantity of substrate converted according to (eqn 1), where dQ/dt is the rate of heat production, V is the volume of the sample cell and [S]t = 0 is the substrate concentration: (1) ΔH=ft=0∞dQ/dtdt/(V[S](t=0))
Experiments were also repeated in HEPES and phosphate buffers and the intrinsic enthalpy change (ΔHint) of the reactions calculated according to (eqn 2) by plotting the measured ΔHapp as a function of ΔHion, where ΔHion is the ionisation enthalpy of the buffer used and n represents the number of exchanging protons. The values of ΔHion used in the calculation were ΔHion (Tris–HCl) = 11.34 kcal/mol, ΔHion (HEPES) = 4.88 kcal/mol and ΔHion (phosphate) = 0.86 kcal/mol. (2) ΔHapp=ΔHint+n ΔHion

IMP-1 = conditions: cited from earlier work
CphA = conditions: cited from earlier work
NDM-1 [7] = molecular target: T1, NDM-1; design: made in house; host or cells: E. coli; method as in doi:10.1016/j.ejbas.2015.07.006; conditions: cited from earlier work

T1 sequence (C7C422 29-270 limits assumed): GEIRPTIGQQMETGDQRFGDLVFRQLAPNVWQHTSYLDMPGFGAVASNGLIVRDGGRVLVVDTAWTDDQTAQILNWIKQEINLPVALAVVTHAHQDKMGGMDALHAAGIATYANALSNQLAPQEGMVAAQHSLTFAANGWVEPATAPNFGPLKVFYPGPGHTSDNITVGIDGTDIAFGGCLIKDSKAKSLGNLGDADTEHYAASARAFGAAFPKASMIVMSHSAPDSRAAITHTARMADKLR

Row | Compound | IC50 (NDM-1 [1]) [µM] | Ki (NDM-1 [4]) [µM] | Kiu (uncompetitive inhibition constant) (NDM-1 [4]) [µM] | mode of inhibition (NDM-1 [4]) | Km (NDM-1 [5]) [µM] | kcat (NDM-1 [5]) [s⁻¹] | ΔHapp (NDM-1 [6]) [kcal/mol] | ΔHint (NDM-1 [6]) [kcal/mol] | n (number of exchanging protons) (NDM-1 [6]) | also measured
1 | O=C(O)[C@H]1CS[C@@H](C(=O)O)N1 (racemic) [Compound 8, rac-thiazolidine-2,4-dicarboxylic acid] | 3.45 ± 0.26 | 152 ± 6 | 5 ± 0.46 | predominantly uncompetitive |  |  |  |  |  | MIC of imipenem in combination with inhibitor ([2]; 200 μM inhibitor): 16 µg/mL; MIC of imipenem in combination with inhibitor ([2]; 400 μM inhibitor): 8 µg/mL; reduction of MIC of imipenem ([2]; 400 μM inhibitor): 2 fold; synergistic effect with imipenem [2]: weaker synergy; inhibition of imipenem turnover in live bacteria [3]: capable of inhibiting the turnover rate of imipenem; effect on activity (CcrA): powerful effect; Ki (CcrA; class B1 CcrA): 0.64 µM; effect on activity (ImiS): powerful effect; Ki (ImiS; class B2 ImiS): 7.1 µM; effect on activity (L1): powerful effect; Ki (L1; class B3 L1): 1.8 µM
2 | C[C@H](CS)C(=O)N1CCC[C@@H]1C(=O)O [Compound 1, D-Captopril, reference compound] |  |  | 178 ± 21 |  |  |  |  |  |  | 
3 | CC1(C)S[C@@H]2[C@H](NC(=O)Cc3ccccc3)C(=O)N2[C@H]1C(=O)O [Penicillin G, penicillin G] |  |  |  |  | 139 ± 12 | 54 ± 1 | -27.9 ± 0.01 | -18.3 ± 0.73 | −0.87 ± 0.10 | ΔHapp (NDM-1 [6]; listed as penicillin G): –27.9 kcal/mol; n (number of exchanging protons) (NDM-1 [6]; listed as penicillin G): −0.87 (± 0.10)
4 | O=C(O)c1cccc(C(=O)O)n1 [Compound 7, pyridine-2,6-dicarboxylic acid] | 1.13 ± 0.04 | 2.17 ± 0.48 | 2.07 ± 0.06 | mixed inhibitor |  |  |  |  |  | MIC of imipenem in combination with inhibitor ([2]; 200 μM inhibitor): 4 µg/mL; MIC of imipenem in combination with inhibitor ([2]; 400 μM inhibitor): 1 µg/mL; synergistic effect with imipenem [2]: restore the susceptibility; inhibition of imipenem turnover in live bacteria [3]: capable of inhibiting the turnover rate of imipenem; inhibition (IMP-1): effective inhibitor; inhibition (CphA): effective inhibitor
5 | O=C(O)[C@@H](O)[C@H](O)C(=O)O [Compound 5, D-(−)-tartaric acid] | 409 ± 16 | 365 ± 72 | 993 ± 107 | mainly competitive |  |  |  |  |  | 
6 | Cc1cc(/N=N/c2ccc(O)c(C(=O)O)c2)ccc1O [Compound 2] |  |  |  |  |  |  |  |  |  | predicted inhibition in docking (NDM-1 [7]): predicted to inhibit NDM-1
7 | Cc1nnc(SCC2=C(C(=O)O)N3C(=O)[C@@H](NC(=O)Cn4cnnn4)[C@H]3SC2)s1 [Cefazolin, cefazolin] |  |  |  |  | 237 ± 14 | 42 ± 1 | -28.3 ± 0.97 | -5.20 ± 0.04 | −1.89 ± 0.04 | ΔHapp (NDM-1 [6]; listed as cefazolin): –28.3 kcal/mol
8 | C[C@@H](O)[C@H]1C(=O)N2C(C(=O)O)=C(SCCN=CN)C[C@H]12 [Imipenem, imipenem] |  |  |  |  | 168 ± 28 | 23 ± 1 | -32.5 ± 0.08 | -18.4 ± 0.12 | −1.24 ± 0.02 | MIC ([2]; Escherichia coli, 0 μM inhibitor, read-out: MIC of imipenem): 16 µg/mL; ΔHapp (NDM-1 [6]; listed as imipenem): –32.5 kcal/mol; n (number of exchanging protons) (NDM-1 [6]; listed as imipenem): −1.24 (± 0.02)
9 | O=C(O)/C=C/C(=O)O [Compound 6, fumaric acid] | 232 ± 5 | 198 ± 50 | 638 ± 94 | mainly competitive |  |  |  |  |  | 
